Laboratory results taken from PubChem BioAssay AID1259411 (Chemical Carcinogenesis Research Information System (CCRIS), 2018).
Activity calls are given as the source filed them. How the calls were made is not given here.

Test system: rodent carcinogenicity bioassays, tumor incidence
Assay: CCRIS carcinogenicity studies
Outline: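 NCI-built, expert-reviewed records of carcinogenicity and related test outcomes (mutagenicity, tumor promotion/inhibition) compiled from published and report sources, historical span 1985-2011, not updated.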

Q: With ClC1=C(Cl)C2(Cl)C3C(Cl)C=CC3C1(Cl)C2(Cl)Cl (centres undefined) as the compound, how does the carcinogen call (Species: MOUSE, Strain/Sex: B6C3F1/FEMALE, Route: ORAL, Dose: 0, 9, 18 PPM IN DIET, Dose: 0, 9, 18 PPM IN DIET, Tumor Site: Type of Lesion: LIVER: HEPATOCELLULAR CARCINOMA) read?
A: The carcinogen call was “active; positive”.

Q: What about the carcinogen call (Species: MOUSE, Strain/Sex: B6C3F1/MALE, Route: ORAL, Dose: 0, 6.1, 13.8 PPM IN DIET, TWA, Dose: 0, 6.1, 13.8 PPM IN DIET, TWA, Tumor Site: Type of Lesion: LIVER: HEPATOCELLULAR CARCINOMA) of the same compound?
A: The carcinogen call was “active; positive”.

Q: And the carcinogen call (Species: RAT, Strain/Sex: OSBORNE-MENDEL/FEMALE, Route: ORAL, Dose: 0, 25.7, 51.3 PPM IN DIET FOR 80 WK (STUDY DURATION: 111 WK), Dose: 0, 25.7, 51.3 PPM IN DIET FOR 80 WK (STUDY DURATION: 111 WK), Tumor Site: Type of Lesion: THYROID GLAND: FOLLICULAR CELL CARCINOMA OR ADENOMA)?
A: Its carcinogen call is “equivocal”.

Q: What about the carcinogen call (Species: RAT, Strain/Sex: OSBORNE-MENDEL/MALE, Route: ORAL, Dose: 0, 38.9, 77.9 PPM IN DIET, TWA, Dose: 0, 38.9, 77.9 PPM IN DIET, TWA) of the same compound?
A: The carcinogen call was “inactive; negative”.

Q: Which results are given for COc1ccccc1[N+](=O)[O-]?
A: carcinogen call (Species: MOUSE, Strain/Sex: B6C3F1/MALE, Route: ORAL, Dose: 0, 666, 2000, 6000 PPM IN DIET FOR 103 WK (STUDY DURATION: 103 WK), Dose: 0, 666, 2000, 6000 PPM IN DIET FOR 103 WK (STUDY DURATION: 103 WK), Tumor Site: Type of Lesion: LIVER: HEPATOBLASTOMA, HEPATOCELLULAR ADENOMA): active; positive; carcinogen call (Species: RAT, Strain/Sex: F344/N/FEMALE, Route: ORAL, Dose: 0, 222, 666, 2000 PPM IN DIET FOR 103 WK (STUDY DURATION: 103 WK), Dose: 0, 222, 666, 2000 PPM IN DIET FOR 103 WK (STUDY DURATION: 103 WK)): inactive; negative; carcinogen call (Species: RAT, Strain/Sex: F344/N/FEMALE, Route: ORAL, Dose: 0, 6000, 18,000 PPM IN DIET FOR 27 WK (STUDY DURATION: 104 WK), Dose: 0, 6000, 18,000 PPM IN DIET FOR 27 WK (STUDY DURATION: 104 WK), Tumor Site: Type of Lesion: COLON: ADENOMATOUS POLYP, URINARY BLADDER: CARCINOMA, SARCOMA): active; positive; carcinogen call (Species: RAT, Strain/Sex: F344/N/MALE, Route: ORAL, Dose: 0, 222, 666, 2000 PPM IN DIET FOR 103 WK (STUDY DURATION: 103 WK), Dose: 0, 222, 666, 2000 PPM IN DIET FOR 103 WK (STUDY DURATION: 103 WK)): inactive; negative; carcinogen call (Species: RAT, Strain/Sex: F344/N/MALE, Route: ORAL, Dose: 0, 6000, 18,000 PPM IN DIET FOR 27 WK (STUDY DURATION: 104 WK), Dose: 0, 6000, 18,000 PPM IN DIET FOR 27 WK (STUDY DURATION: 104 WK), Tumor Site: Type of Lesion: COLON: ADENOMATOUS POLYP, KIDNEY: CARCINOMA, URINARY BLADDER: CARCINOMA, SARCOMA, Tumor Site: Type of Lesion: COLON: ADENOMATOUS POLYP, KIDNEY: CARCINOMA, URINARY BLADDER: CARCINOMA, SARCOMA): active; positive

Q: With COS(=O)(=O)OC as the compound, how does the carcinogen call (Species: RAT, Route: INHALATION, Tumor Site: Type of Lesion: NASAL CAVITY, BRAIN) read?
A: Its carcinogen call is “active; positive”.

Q: What about the carcinogen call (Species: RAT, Route: SUBCUTANEOUS, Tumor Site: Type of Lesion: INJECTION SITE) of the same compound?
A: The carcinogen call was “active; positive”.

Q: How did the carcinogen call (Species: MOUSE, Strain/Sex: ICR/FEMALE, Route: DERMAL, Dose: 10 MG IN 0.1 ML ACETONE 3/WK FOR LIFE, Tumor Site: Type of Lesion: INTEGUMENTARY SYSTEM (SKIN): PAPILLOMA, SQUAMOUS CELL CARCINOMA) turn out when C[C@H]1O[C@@H]1Cl was run?
A: Its carcinogen call is “active; positive”.

Q: And the carcinogen call (Species: MOUSE, Strain/Sex: ICR/FEMALE, Route: SUBCUTANEOUS, Dose: 1 MG IN 0.05 ML TRICAPRYLIN 1/WK FOR LIFE, Tumor Site: Type of Lesion: INJECTION SITE: FIBROSARCOMA, CARCINOMA)?
A: The carcinogen call was “active; positive”.

Q: What does the source list for O=[N+]([O-])c1ccc2ccc3cccc4c3c2c1C1OC41 (centres undefined)?
A: carcinogen call (Species: MOUSE, Strain/Sex: B6C3F1/FEMALE, Route: INTRAPERITONEAL, Dose: 0, 7 NMOL (TOTAL DOSE), 1/7, 2/7 AND 4/7 OF THE TOTAL DOSE ADMINISTERED WITHIN 24 HR OF BIRTH AND AT 8 AND 15 D OF AGE): inactive; negative; carcinogen call (Species: MOUSE, Strain/Sex: B6C3F1/MALE, Route: INTRAPERITONEAL, Dose: 0, 7 NMOL (TOTAL DOSE), 1/7, 2/7 AND 4/7 OF THE TOTAL DOSE ADMINISTERED WITHIN 24 HR OF BIRTH AND AT 8 AND 15 D OF AGE): inactive; negative

Q: For O[C@H]1C=Cc2c(ccc3c2-c2cccc4cccc-3c24)[C@@H]1O, which carcinogen call (Species: MOUSE, Strain/Sex: CD-1/FEMALE, Route: INTRAPERITONEAL, Dose: 0, 0.275, 1.1 UMOL (TOTAL DOSE) ADMINISTERED OVER DAYS 1, 8, AND 15 OF LIFE (STUDY DURATION: 52 WEEKS), Dose: 0, 0.275, 1.1 UMOL (TOTAL DOSE) ADMINISTERED OVER DAYS 1, 8, AND 15 OF LIFE (STUDY DURATION: 52 WEEKS), Tumor Site: Type of Lesion: LUNG: ALVEOLAR/BRONCHIOLAR CARCINOMA) is on record?
A: The carcinogen call was “active; positive”.

Q: And the carcinogen call (Species: MOUSE, Strain/Sex: CD-1/MALE, Route: INTRAPERITONEAL, Dose: 0, 0.275, 1.1 UMOL(TOTAL DOSE) ADMINISTERED OVER DAYS 1, 8, AND 15 OF LIFE (STUDY DURATION: 52 WEEKS), Dose: 0, 0.275, 1.1 UMOL(TOTAL DOSE) ADMINISTERED OVER DAYS 1, 8, AND 15 OF LIFE (STUDY DURATION: 52 WEEKS), Tumor Site: Type of Lesion: LUNG: ALVEOLAR/BRONCHIOLAR CARCINOMA, LIVER: ADENOMA OR CARCINOMA)?
A: The carcinogen call was “active; positive”.

Q: Which carcinogen call (Species: MOUSE, Strain/Sex: ALBINO/MALE, FEMALE, Route: DERMAL, Tumor Site: Type of Lesion: SKIN: TUMOR) does the source give for Cc1ccc2c(c1)C1=Nc3ccccc3C3=Nc4ccccc4C(=N2)N31 here?
A: Its carcinogen call is “active; positive”.

Q: Which results are given for CCN(CC)C(=O)N(C)N=O?
A: carcinogen call (Species: HAMSTER, Strain/Sex: SYRIAN/FEMALE, Route: SUBCUTANEOUS, Dose: 0, 7.75, 14.15, 28.3, 56.6 MG/KG IN 0.1 ML OLIVE OIL 1/WK FOR 52 WK (STUDY DURATION: LIFESPAN), Dose: 0, 7.75, 14.15, 28.3, 56.6 MG/KG IN 0.1 ML OLIVE OIL 1/WK FOR 52 WK (STUDY DURATION: LIFESPAN), Tumor Site: Type of Lesion: NASAL CAVITY: SQUAMOUS CELL CARCINOMA, SPLEEN: HEMANGIOENDOTHELIOMA, FORESTOMACH: SQUAMOUS CELL CARCINOMA, PAPILLOMA, Tumor Site: Type of Lesion: NASAL CAVITY: SQUAMOUS CELL CARCINOMA, SPLEEN: HEMANGIOENDOTHELIOMA, FORESTOMACH: SQUAMOUS CELL CARCINOMA, PAPILLOMA): active; positive; carcinogen call (Species: HAMSTER, Strain/Sex: SYRIAN/MALE, Route: GAVAGE, Dose: 0, 40 MG/ML ((0.2 ML OF A SOLUTION IN ETHYL ACETATE/CORN OIL (1:2)) 1/WK FOR 25 WK (STUDY DURATION: LIFE SPAN), Tumor Site: Type of Lesion: LIVER: HEMANGIOSARCOMA, CHOLANGIOMA OR CARCINOMA, SPLEEN: HEMANGIOSARCOMA, FORESTOMACH: SQUAMOUS CELL CARCINOMA OR PAPIL, Tumor Site: Type of Lesion: LIVER: HEMANGIOSARCOMA, CHOLANGIOMA OR CARCINOMA, SPLEEN: HEMANGIOSARCOMA, FORESTOMACH: SQUAMOUS CELL CARCINOMA OR PAPIL): active; positive; carcinogen call (Species: HAMSTER, Strain/Sex: SYRIAN/MALE, Route: SUBCUTANEOUS, Dose: 0, 7.75, 14.15, 28.3, 56.6 MG/KG IN 0.1 ML OLIVE OIL 1/WK FOR 52 WK (STUDY DURATION: LIFESPAN), Dose: 0, 7.75, 14.15, 28.3, 56.6 MG/KG IN 0.1 ML OLIVE OIL 1/WK FOR 52 WK (STUDY DURATION: LIFESPAN), Tumor Site: Type of Lesion: NASAL CAVITY: SQUAMOUS CELL CARCINOMA, SPLEEN: HEMANGIOENDOTHELIOMA, FORESTOMACH: SQUAMOUS CELL CARCINOMA, PAPILLOMA, Tumor Site: Type of Lesion: NASAL CAVITY: SQUAMOUS CELL CARCINOMA, SPLEEN: HEMANGIOENDOTHELIOMA, FORESTOMACH: SQUAMOUS CELL CARCINOMA, PAPILLOMA): active; positive

Q: For O[C@H]1[C@@H]2O[C@@H]2C=C[C@@H]1O, which carcinogen call (Species: MOUSE, Strain/Sex: SWISS/FEMALE, Route: INTRAPERITONEAL, Dose: 0, 2.7, 13.7 UMOL ADMINISTERED AS 3 UNEQUAL DOSES (1/7, 2/7, AND 4/7 OF THE TOTAL DOSE) OVER A 2-WK PERIOD (STUDY DURATI, Dose: 0, 2.7, 13.7 UMOL ADMINISTERED AS 3 UNEQUAL DOSES (1/7, 2/7, AND 4/7 OF THE TOTAL DOSE) OVER A 2-WK PERIOD (STUDY DURATI) is on record?
A: The carcinogen call was “inactive; negative”.

Q: And the carcinogen call (Species: MOUSE, Strain/Sex: SWISS/MALE, Route: INTRAPERITONEAL, Dose: 0, 2.7, 13.7 UMOL ADMINISTERED AS 3 UNEQUAL DOSES (1/7, 2/7, AND 4/7 OF THE TOTAL DOSE) OVER A 2-WK PERIOD (STUDY DURATI, Dose: 0, 2.7, 13.7 UMOL ADMINISTERED AS 3 UNEQUAL DOSES (1/7, 2/7, AND 4/7 OF THE TOTAL DOSE) OVER A 2-WK PERIOD (STUDY DURATI)?
A: Its carcinogen call is “inactive; negative”.

Q: Which carcinogen call (Species: RAT, Strain/Sex: F344/MALE, Route: GAVAGE, Dose: 0, 108 MG/ML IN CORN OIL 2/WK FOR 30 WK, STUDY DURATION: 110 WK, Dose: 0, 108 MG/ML IN CORN OIL 2/WK FOR 30 WK, STUDY DURATION: 110 WK, Tumor Site: Type of Lesion: LUNG: ADENOCARCINOMA, BLADDER) does the source give for CCCCCCCCCCN(C)N=O here?
A: The carcinogen call was “active; positive”.
